Measured values from ChEMBL document CHEMBL1641455, “Discovery of novel ureas and thioureas of 3-decladinosyl-3-hydroxy 15-membered azalides active against efflux-mediated resistant Streptococcus pneumoniae” (2011).
≈ marks a conversion by molar mass, not a printed value.

Experiments:
Type in all cases: functional
Streptococcus pyogenes [1] = experiment: Antimicrobial activity against erythromycin-susceptible Streptococcus pyogenes after 16 to 22 hrs by broth microdilution method
Staphylococcus aureus = experiment: Antimicrobial activity against Staphylococcus aureus ATCC 29213 after 16 to 22 hrs by broth microdilution method
Streptococcus pneumoniae [2] = experiment: Antimicrobial activity against erythromycin-susceptible Streptococcus pneumoniae after 16 to 22 hrs by broth microdilution method
Escherichia coli = experiment: Antimicrobial activity against Escherichia coli ATCC 25922 after 16 to 22 hrs by broth microdilution method
Streptococcus pyogenes [3] = experiment: Antimicrobial activity against macrolide-resistant erythromycin-Streptococcus pyogenes after 16 to 22 hrs by broth microdilution method
Moraxella catarrhalis = experiment: Antimicrobial activity against Moraxella catarrhalis ATCC 23246 after 16 to 22 hrs by broth microdilution method
Haemophilus influenzae = experiment: Antimicrobial activity against Haemophilus influenzae ATCC 49247 after 16 to 22 hrs by broth microdilution method
Streptococcus pneumoniae [4] = experiment: Antimicrobial activity against macrolide-resistant erythromycin-Streptococcus pneumoniae after 16 to 22 hrs by broth microdilution method
Enterococcus faecalis = experiment: Antimicrobial activity against Enterococcus faecalis ATCC 29212 after 16 to 22 hrs by broth microdilution method
[5] = Streptococcus pyogenes, read-out: MIC
[6] = Staphylococcus aureus, ATCC 29213, read-out: MIC
[7] = Streptococcus pneumoniae, read-out: MIC
[8] = Escherichia coli, ATCC 25922, read-out: MIC
[9] = Haemophilus influenzae, ATCC 49247, read-out: MIC

| Compound | MIC (Streptococcus pyogenes [1]; [5]) [µg/mL] | MIC (Staphylococcus aureus; [6]) [µg/mL] | MIC (Streptococcus pneumoniae [2]; [7]) [µg/mL] | MIC (Escherichia coli; [8]) [µg/mL] | MIC (Streptococcus pyogenes [3]; [5]) [µg/mL] | MIC (Moraxella catarrhalis) [µg/mL] | MIC (Haemophilus influenzae; [9]) [µg/mL] | MIC (Streptococcus pneumoniae [4]; [7]) [µg/mL] | MIC (Enterococcus faecalis) [µg/mL] | MIC (Streptococcus pyogenes [1]) [µg/mL] | MIC (Staphylococcus aureus) [µg/mL] | MIC (Streptococcus pneumoniae [2]) [µg/mL] | MIC (Escherichia coli) [µg/mL] | MIC (Streptococcus pyogenes [3]) [µg/mL] | MIC (Haemophilus influenzae) [µg/mL] | MIC (Streptococcus pneumoniae [4]) [µg/mL] |
| --- | --- | --- | --- | --- | --- | --- | --- | --- | --- | --- | --- | --- | --- | --- | --- | --- |
| CC[C@H]1OC(=O)[C@H](C)[C@@H](O)[C@H](C)[C@@H](O[C@@H]2O[C@H](C)C[C@H](N(C)C)[C@H]2O)[C@](C)(O)C[C@@H](C)CN(CCCN(CCC#N)C(=O)Nc2cccc3ccccc23)[C@H](C)[C@@H](O)[C@]1(C)O | 16 (≈ 18.7 µM) | > 64 | 16 (≈ 18.7 µM) | 64 (≈ 74.8 µM) | 64 (≈ 74.8 µM) | 8 (≈ 9.34 µM) | 32 (≈ 37.4 µM) | 64 (≈ 74.8 µM) | > 64 |  |  |  |  |  |  |  |
| CC[C@H]1OC(=O)[C@H](C)[C@@H](O)[C@H](C)[C@@H](O[C@@H]2O[C@H](C)C[C@H](N(C)C)[C@H]2O)[C@](C)(O)C[C@@H](C)CN(CCCNC(=S)NCCc2ccccc2)[C@H](C)[C@@H](O)[C@]1(C)O | 32 (≈ 40.1 µM) | > 64 | 4 (≈ 5.02 µM) | 64 (≈ 80.3 µM) | 64 (≈ 80.3 µM) | 4 (≈ 5.02 µM) | 16 (≈ 20.1 µM) | 16 (≈ 20.1 µM) | 64 (≈ 80.3 µM) |  |  |  |  |  |  |  |
| CC[C@H]1OC(=O)[C@H](C)[C@@H](O)[C@H](C)[C@@H](O[C@@H]2O[C@H](C)C[C@H](N(C)C)[C@H]2O)[C@](C)(O)C[C@@H](C)CN(CCCN(CCC#N)C(=S)NCc2ccccc2)[C@H](C)[C@@H](O)[C@]1(C)O | > 64 | > 64 |  | > 64 |  | 2 (≈ 2.39 µM) | 8 (≈ 9.57 µM) | 16 (≈ 19.1 µM) | > 64 |  |  |  |  |  |  |  |
| CC[C@H]1OC(=O)[C@H](C)[C@@H](O[C@H]2C[C@@](C)(OC)[C@@H](O)[C@H](C)O2)[C@H](C)[C@@H](O[C@@H]2O[C@H](C)C[C@H](N(C)C)[C@H]2O)[C@](C)(O)C[C@@H](C)CN(C)[C@H](C)[C@@H](O)[C@]1(C)O (stereo in doubt; 2) [AZITHROMYCIN] |  |  |  |  |  |  |  |  |  | >64 | >64 | >64 | 16 (≈ 21.4 µM) | >64 | 16 (≈ 21.4 µM) | >64 |
| CC[C@H]1OC(=O)[C@H](C)[C@@H](O)[C@H](C)[C@@H](O[C@@H]2O[C@H](C)C[C@H](N(C)C)[C@H]2O)[C@](C)(O)C[C@@H](C)CN(CCCN(CCC#N)C(=O)Nc2ccc3ccccc3c2)[C@H](C)[C@@H](O)[C@]1(C)O | 8 (≈ 9.34 µM) | > 64 |  | 16 (≈ 18.7 µM) | 16 (≈ 18.7 µM) | 2 (≈ 2.34 µM) | 2 (≈ 2.34 µM) | 4 (≈ 4.67 µM) | 32 (≈ 37.4 µM) |  |  |  |  |  |  |  |
| CC[C@H]1OC(=O)[C@H](C)[C@@H](O)[C@H](C)[C@@H](O[C@@H]2O[C@H](C)C[C@H](N(C)C)[C@H]2O)[C@](C)(O)C[C@@H](C)CN(CCCN(CCC#N)C(=S)NCCCc2ccccc2)[C@H](C)[C@@H](O)[C@]1(C)O | 32 (≈ 37 µM) | > 64 |  | > 64 | 64 (≈ 74.1 µM) | 8 (≈ 9.26 µM) | 8 (≈ 9.26 µM) | 16 (≈ 18.5 µM) | > 64 |  |  |  |  |  |  |  |
| CC[C@H]1OC(=O)[C@H](C)[C@@H](O)[C@H](C)[C@@H](O[C@@H]2O[C@H](C)C[C@H](N(C)C)[C@H]2O)[C@](C)(O)C[C@@H](C)CN(CCCNC(=O)NC(C)c2cccc3ccccc23)[C@H](C)[C@@H](O)[C@]1(C)O (mixture of isomers) | < 0.125 | 16 | < 0.125 | 16 | 16 | 4 | 4 | 16 | 8 |  |  |  |  |  |  |  |
| CC[C@H]1OC(=O)[C@H](C)[C@@H](O[C@H]2C[C@@](C)(OC)[C@@H](O)[C@H](C)O2)[C@H](C)[C@@H](O[C@@H]2O[C@H](C)C[C@H](N(C)C)[C@H]2O)[C@](C)(O)C[C@@H](C)CN(C)[C@H](C)[C@@H](O)[C@]1(C)O (stereo in doubt; 1) [AZITHROMYCIN] |  |  |  |  |  | < 0.125 |  |  | 8 (≈ 10.7 µM) |  | 0.5 (≈ 0.668 µM) |  | 2 (≈ 2.67 µM) | 4 (≈ 5.34 µM) | 1 (≈ 1.34 µM) | 8 (≈ 10.7 µM) |
| CC[C@H]1OC(=O)[C@H](C)[C@@H](O)[C@H](C)[C@@H](O[C@@H]2O[C@H](C)C[C@H](N(C)C)[C@H]2O)[C@](C)(O)C[C@@H](C)CN(CCCN(CCC#N)C(=O)NC(C)c2cccc3ccccc23)[C@H](C)[C@@H](O)[C@]1(C)O (mixture of isomers) | 4 | > 64 | 4 | > 64 | > 64 | 4 | 16 | 8 | 64 |  |  |  |  |  |  |  |
| CC[C@H]1OC(=O)[C@H](C)[C@@H](O)[C@H](C)[C@@H](O[C@@H]2O[C@H](C)C[C@H](N(C)C)[C@H]2O)[C@](C)(O)C[C@@H](C)CN(CCCN(CCC#N)C(=O)Nc2ccc(Cl)cc2Cl)[C@H](C)[C@@H](O)[C@]1(C)O | > 64 | > 64 |  | > 64 |  | 8 (≈ 9.14 µM) | 16 (≈ 18.3 µM) | 8 (≈ 9.14 µM) | > 64 |  |  |  |  |  |  |  |
| CC[C@H]1OC(=O)[C@H](C)[C@@H](O)[C@H](C)[C@@H](O[C@@H]2O[C@H](C)C[C@H](N(C)C)[C@H]2O)[C@](C)(O)C[C@@H](C)CN(CCCNC(=S)Nc2cccc3ccccc23)[C@H](C)[C@@H](O)[C@]1(C)O | 8 (≈ 9.77 µM) | > 64 | 1 (≈ 1.22 µM) | 16 (≈ 19.5 µM) | 64 (≈ 78.1 µM) | 0.5 (≈ 0.61 µM) | 4 (≈ 4.88 µM) | 2 (≈ 2.44 µM) | 32 (≈ 39.1 µM) |  |  |  |  |  |  |  |
| CC[C@H]1OC(=O)[C@H](C)[C@@H](O)[C@H](C)[C@@H](O[C@@H]2O[C@H](C)C[C@H](N(C)C)[C@H]2O)[C@](C)(O)C[C@@H](C)CN(CCCN(CCC#N)C(=S)NCCc2ccccc2)[C@H](C)[C@@H](O)[C@]1(C)O | > 64 | > 64 |  | > 64 |  | 8 (≈ 9.41 µM) | 32 (≈ 37.6 µM) | 16 (≈ 18.8 µM) | > 64 |  |  |  |  |  |  |  |
| CC[C@H]1OC(=O)[C@H](C)[C@@H](O)[C@H](C)[C@@H](O[C@@H]2O[C@H](C)C[C@H](N(C)C)[C@H]2O)[C@](C)(O)C[C@@H](C)CN(CCCNC(=O)Nc2cccc3ccccc23)[C@H](C)[C@@H](O)[C@]1(C)O | 2 (≈ 2.49 µM) | > 64 | 1 (≈ 1.25 µM) | 8 (≈ 9.96 µM) | 16 (≈ 19.9 µM) | 2 (≈ 2.49 µM) | 2 (≈ 2.49 µM) | 8 (≈ 9.96 µM) | 32 (≈ 39.8 µM) |  |  |  |  |  |  |  |
